Test results reported in patent US20080153839A1, “USE OF ANISIC ACID FOR PROMOTING DESQUAMATION” (L'OREAL, priority 2006, published 2008).

System: stratum corneum of normal human skin fragments kept in survival
Assay: Cohesion of the stratum corneum on skin kept in survival, histological slices stained with hemalun-eosin
Assay type: cell-based
Settings: for % increase in desquamation relative to the control skin / Scores (histological evaluation of the cohesion of the horny layer, semi-quantitative scores): topical; for Scores (histological evaluation of the cohesion of the horny layer, semi-quantitative scores): average of 6 donors, score 0-4, the higher the score the lower the cohesion
Description: Fragments of normal human skin are obtained by plastic surgery from 6 different donors. They are placed in inserts, which are themselves positioned on culture wells containing culture medium specifically adapted for maintaining the skin fragments in survival (antibiotics, FCS). The anisic acid is applied topically according to the following protocol and in comparison with an untreated skin (control skin): • control skin • skin+[…] • skin+[…] The cohesion of the horny layer was evaluated using stained histological slices, according to the following semi-quantitative scores (evaluation on 10 to 15 fields at magnification 40): • score 0 absence of change of cohesion of the stratum corneum • score 1 slight reduction in cohesion of the stratum corneum • score 2 moderate reduction in cohesion of the stratum corneum • score 3 large reduction in cohesion of the stratum corneum • score 4 very large reduction in cohesion of the stratum corneum with exfoliation. An average is determined for each parameter from the results obtained on the 6 skin models. The statistical analysis is performed by means of the “reduced deviation” Student test or the paired samples test, with a risk of 5%.

[1] = 0.1% anisic acid, listed as anisic acid
[2] = 1% anisic acid, listed as anisic acid

COc1ccc(C(=O)O)cc1 [Anisic acid, 4-methoxybenzoic acid]
desquamating activity after topical application relative to the control skins (0.1% and 1%, histological reduction in the cohesion of the stratum corneum, no dose effect): significant desquamating activity
% increase in desquamation relative to the control skin (0.1% anisic acid): 95.9%
Scores (histological evaluation of the cohesion of the horny layer, semi-quantitative scores) (0.1% anisic acid): 1.43 ± 0.7
Scores (histological evaluation of the cohesion of the horny layer, semi-quantitative scores) [1]: 1.43
% increase in desquamation relative to the control skin [1]: 95.9%
% increase in desquamation relative to the control skin (1% anisic acid): 115%
Scores (histological evaluation of the cohesion of the horny layer, semi-quantitative scores) (1% anisic acid): 1.57 ± 0.4
Scores (histological evaluation of the cohesion of the horny layer, semi-quantitative scores) [2]: 1.57
% increase in desquamation relative to the control skin [2]: 115%
